Like-named read-outs stand apart in the source and are kept apart here. Marks after values point to notes of the source that are not given here.
Key:
Assay type in all cases: cell-based
[1] = tested on: BRD pathogens, M. haemolytica and P. multocida; experiment: MIC screening panel, BRD pathogens (CLSI broth micro-dilution)
Description: Primary screening of the compounds of the invention included the evaluation of antibacterial activity of analogs through determination of microbial inhibition concentration (MIC) as per CLSI guidelines. The screening panel included the relevant BRD pathogens: 1) M. haemolytica (e.g., 12726, 46571 and 49023, all AHDRCC; and 33396 (ATCC)); and 2) P. multocida (e.g., 34135 and 46572 (both AHDRCC) and 43137 (ATCC)). In some instances, H. somni (A700025K) pathogens were also included in the screening panel. The AHDRCC strains originated from the Zoetis BRD/SRD surveillance program and refer to the Animal Health Development and Research Culture Collection. In addition, the screen assessed S. aureus (29213 ATCC) as a representative Gram-positive isolate, E.faecalis (19433 ATCC) as a commensal gram-positive gastrointestinal bacterium and E. coli (100, 3110 and 25922 (ATCC)) for the evaluation of efflux potential. The screening panel BRD pathogens were assessed in determining antibacterial activity of the Formula (1) compounds.
All relevant BRD pathogens were initially screened at a top concentration of 64 μg/mL of a Formula (1) compound in an eleven-point dilution series. […] If an Example was purified further, the MICs moved […] essentially two dilutions across all strains tested in the screening panel.
In-Vitro MIC Model Compounds were analyzed for antibacterial activity against a panel of animal health specific gram-positive and gram-negative clinical strains by diluting compounds in DMSO to an appropriate stock concentration to determine the Minimal Inhibitory Concentration (MIC) via a semi-automated broth micro-dilution method (CLSI reference method) with QC strains and anti-microbial agent(s). Specifically, bacteria were grown overnight on TSA w/5% sheep blood agar plates and diluted in saline buffer to a McFarland Standard 0.5, then further diluted in cation-ion adjusted Mueller Hinton Broth to a final concentration of approximately 5×10^5 CFU/mL. 100 μL of inoculated media was added to 96-well plate(s) with 3 μL of serially diluted compound in each row. Depending on strain (see CLSI reference method), bacteria were incubated 18-22 hours at 35-37° C. in ambient air, with 5% CO2 or anaerobically (up to 48 hours).

IL-6 = experiment: Whole bovine blood assay, LPS-induced IL-6; conditions: fresh whole bovine blood, LPS stimulant; top drug concentration 250 μM
TNF-α = experiment: Whole bovine blood assay, LPS-induced TNF-α; conditions: fresh whole bovine blood, LPS stimulant; top drug concentration 250 μM
Procedure, shortened: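 Fresh heparinized bovine whole blood was preincubated with compound 4 h at 37 °C, then stimulated with LPS (final 1 μg/mL) for 18 h at 37 °C. Plasma TNF-α was quantified by MSD U-Plex chemiluminescent immunoassay, normalized to total protein (BCA), and IC50 taken for LPS-induced TNF-α inhibition.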

IL-1β = experiment: Whole bovine blood assay, LPS-induced IL-1β (inhibition / overstimulation); conditions: drug concentration giving overstimulation (OS) of LPS-induced IL-1β, top concentration 250 μM
Procedure, shortened: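 IL-1β was quantified by MSD U-Plex chemiluminescence in plasma and normalized to BCA total protein. Bovine blood was pretreated 4 h at 37 °C with compound dilutions before 18 h LPS challenge (1 μg/mL final). Rising IL-1β at high concentrations was recorded as overstimulation.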

[2] = Table B, at least one BRD pathogenic strain, top concentration 64 μg/mL, read-out: MIC flag (*) for BRD pathogenic strains

IC50 (IL-6)	IC50 (TNF-α)	Compound	MIC flag (*) for BRD pathogenic strains ([1]; Table B, at least one BRD pathogenic strain, top concentration 64 μg/mL)	MIC [1, 2]	MIC ([1]; BRD pathogens M. haemolytica and P. multocida, read-out: antibacterial / non-antibacterial (MIC class))	minimal effective concentration (IL-1β)
–	–	CCCNC[C@]1(O)[C@H](C)OC(O[C@H]2[C@H](C)[C@@H](O[C@@H]3O[C@H](C)C[C@H](N(C)S(=O)(=O)c4c(C)noc4C)[C@H]3Oc3ccc(OC)cc3)[C@](C)(O)C[C@@H](C)CN[C@H](C)[C@@H](O)[C@](C)(O)[C@@H](CC)OC(=O)[C@@H]2C)C[C@@]1(C)OC (stereo partly shown) [Example B-116]	B-116* (MIC ≤64 μg/mL for at least one BRD pathogenic strain)	–	–	–
–	–	CCCNC[C@]1(O)[C@H](C)O[C@@H](O[C@H]2[C@H](C)[C@@H](O[C@@H]3O[C@H](C)C[C@H](N(C)S(=O)(=O)c4ccccc4)[C@H]3Oc3ccc(F)cc3)[C@](C)(O)C[C@@H](C)CN(CC)[C@H](C)[C@@H](O)[C@](C)(O)[C@@H](CC)OC(=O)[C@@H]2C)C[C@@]1(C)OC [Example B-161, N-((2S,3R,4S,6R)-2-(((2R,3S,4R,5R,8R,10R,11R,12S,13S,14R)-2,6-diethyl-3,4,10-trihydroxy-13-(((2R,4R,5S,6S)-5-hydroxy-4-methoxy-4,6-dimethyl-5-((propylamino)methyl)tetrahydro-2H-pyran-2-yl)oxy)-3,5,8,10,12,14-hexamethyl-15-oxo-1-oxa-6-azacyclopentadecan-11-yl)oxy)-3-(4-fluorophenoxy)-6-methyltetrahydro-2H-pyran-4-yl)-N-methylbenzenesulfonamide]	–	≤ 64 mg/L	–	–
–	–	CC[C@H]1OC(=O)[C@H](C)[C@@H](O[C@H]2C[C@@](C)(OC)[C@](O)(CC#N)[C@H](C)O2)[C@H](C)[C@@H](O[C@@H]2O[C@H](C)C[C@H](N(C)S(=O)(=O)c3ccc(Cl)cc3)[C@H]2O)[C@](C)(O)C[C@@H](C)CN[C@H](C)[C@@H](O)[C@]1(C)O [Example A6-1, 4-chloro-N-((2S,3R,4S,6R)-2-(((2R,3S,4R,5R,8R,10R,11R,12S,13S,14R)-13-(((2R,4R,5S,6S)-5-(cyanomethyl)-5-hydroxy-4-methoxy-4,6-dimethyltetrahydro-2H-pyran-2-yl)oxy)-2-ethyl-3,4,10-trihydroxy-3,5,8,10,12,14-hexamethyl-15-oxo-1-oxa-6-azacyclopentadecan-11-yl)oxy)-3-hydroxy-6-methyltetrahydro-2H-pyran-4-yl)-N-methylbenzenesulfonamide]	–	–	> 64 mg/L	–
–	–	CCCNC[C@]1(O)[C@H](C)O[C@@H](O[C@H]2[C@H](C)[C@@H](O[C@@H]3O[C@H](C)C[C@H](N(C)S(=O)(=O)NCCc4ccccc4)[C@H]3O)[C@](C)(O)C[C@@H](C)CN[C@H](C)[C@@H](O)[C@](C)(O)[C@@H](CC)OC(=O)[C@@H]2C)C[C@@]1(C)OC [Example B-40, (2R,3S,4R,5R,8R,10R,11R,12S,13S,14R)-2-ethyl-3,4,10-trihydroxy-13-[(2R,4R,5S,6S)-5-hydroxy-4-methoxy-4,6-dimethyl-5-(propylaminomethyl)oxan-2-yl]oxy-11-[(2S,3R,4S,6R)-3-hydroxy-6-methyl-4-[methyl (2-phenylethylsulfamoyl)amino]oxan-2-yl]oxy-3,5,8,10,12,14-hexamethyl-15-oxo-1-oxa-6-azacyclopentadecane]	–	≤ 64 mg/L	–	–
59 µM	205 µM	CC[C@H]1OC(=O)[C@H](C)[C@@H](O)[C@H](C)[C@@H](O[C@@H]2O[C@H](C)C[C@H](N(C)S(=O)(=O)c3nccn3C)[C@H]2Oc2ccc(F)c(C(F)(F)F)c2)[C@](C)(O)C[C@@H](C)CN[C@H](C)[C@@H](O)[C@]1(C)O [Example A-34]	–	–	–	40 µM
83 µM	17 µM	CCCNC[C@]1(O)[C@H](C)O[C@@H](O[C@H]2[C@H](C)[C@@H](O[C@@H]3O[C@H](C)C[C@H](N(C)S(=O)(=O)c4nccn4C)[C@H]3Oc3cccc(CO)c3)[C@](C)(O)C[C@@H](C)CN[C@H](C)[C@@H](O)[C@](C)(O)[C@@H](CC)OC(=O)[C@@H]2C)C[C@@]1(C)OC [Example B-134]	–	–	–	40 µM
50 µM	66 µM	CC[C@H]1OC(=O)[C@H](C)[C@@H](O[C@H]2C[C@@](C)(OC)[C@](O)(CN3CCN(C)CC3)[C@H](C)O2)[C@H](C)[C@@H](O[C@@H]2O[C@H](C)C[C@H](N(C)S(=O)(=O)c3ccc(Cl)cc3)[C@H]2O)[C@](C)(O)C[C@@H](C)CN[C@H](C)[C@@H](O)[C@]1(C)O [Example C-7]	–	–	–	6 µM
25 µM	5 µM	CC[C@H]1OC(=O)[C@H](C)[C@@H](O[C@H]2C[C@@](C)(OC)[C@](O)(CNCCN3CCCC3)[C@H](C)O2)[C@H](C)[C@@H](O[C@@H]2O[C@H](C)C[C@H](N(C)S(=O)(=O)Nc3ccc(C(F)(F)F)cc3)[C@H]2O)[C@](C)(O)C[C@@H](C)CN[C@H](C)[C@@H](O)[C@]1(C)O [Example B-68]	–	–	–	16 µM
73 µM	40 µM	CCCNC[C@]1(O)[C@H](C)O[C@@H](O[C@H]2[C@H](C)[C@@H](O[C@@H]3O[C@H](C)C[C@H](N(C)S(=O)(=O)c4nccn4C)[C@H]3Oc3cccc([S+](C)[O-])c3)[C@](C)(O)C[C@@H](C)CN[C@H](C)[C@@H](O)[C@](C)(O)[C@@H](CC)OC(=O)[C@@H]2C)C[C@@]1(C)OC (stereo partly shown) [Example B-139]	–	–	–	40 µM
24 µM	13 µM	CCCNC[C@]1(O)[C@H](C)O[C@@H](O[C@H]2[C@H](C)[C@@H](O[C@@H]3O[C@H](C)C[C@H](N(C)S(=O)(=O)N4CCCCC4)[C@H]3O)[C@](C)(O)C[C@@H](C)CN[C@H](C)[C@@H](O)[C@](C)(O)[C@@H](CC)OC(=O)[C@@H]2C)C[C@@]1(C)OC [Example B-47]	–	–	–	40 µM
66 µM	141 µM	CC[C@H]1OC(=O)[C@H](C)[C@@H](O)[C@H](C)[C@@H](O[C@@H]2O[C@H](C)C[C@H](N(C)S(=O)(=O)c3nccn3C)[C@H]2Oc2ccc(F)cc2)[C@](C)(O)C[C@@H](C)CN[C@H](C)[C@@H](O)[C@]1(C)O [Example A-27]	–	–	–	100 µM
10 µM	10 µM	CCCNC[C@]1(O)[C@H](C)O[C@@H](O[C@H]2[C@H](C)[C@@H](O[C@@H]3O[C@H](C)C[C@H](N(Cc4ccc(OC)cc4)S(=O)(=O)c4nccn4C)[C@H]3O)[C@](C)(O)C[C@@H](C)CN[C@H](C)[C@@H](O)[C@](C)(O)[C@@H](CC)OC(=O)[C@@H]2C)C[C@@]1(C)OC [Example B-146]	–	–	–	2 µM
28 µM	75 µM	CC[C@H]1OC(=O)[C@H](C)[C@@H](O)[C@H](C)[C@@H](O[C@@H]2O[C@H](C)C[C@H](N(C)S(=O)(=O)c3ccc(F)cc3)[C@H]2Oc2ccc(F)cc2)[C@](C)(O)C[C@@H](C)CN[C@H](C)[C@@H](O)[C@]1(C)O [Example A-25]	–	–	–	16 µM
16 µM	16 µM	CC[C@H]1OC(=O)[C@H](C)[C@@H](O)[C@H](C)[C@@H](O[C@@H]2O[C@H](C)C[C@H](N(C)S(=O)(=O)c3ccc(N4CCOCC4)nc3)[C@H]2Oc2ccc(F)cc2)[C@](C)(O)C[C@@H](C)CN[C@H](C)[C@@H](O)[C@]1(C)O [Example A-21]	–	–	–	16 µM
54 µM	> 250 µM	CC[C@H]1OC(=O)[C@H](C)[C@@H](O[C@H]2C[C@@](C)(OC)[C@](O)(CNCCN(C)C)[C@H](C)O2)[C@H](C)[C@@H](O[C@@H]2O[C@H](C)C[C@H](N(C)S(=O)(=O)c3ccc(Cl)cc3)[C@H]2O)[C@](C)(O)C[C@@H](C)CN[C@H](C)[C@@H](O)[C@]1(C)O [Example B-35]	–	–	–	16 µM
